Laboratory results published in patent publication US8592181B2, “Brazzein variant having higher sweetness and method for preparing multi-variant” (Chung-Ang University Industry-Academy Cooperation Foundation, priority 2009, dated 2013).

Tested on: human sense of taste
Assay: Sweetness measured by human sense of taste (20 trained subjects, minimum concentration at which sweetness is first sensed)
Format: in vivo
Settings: for Multiples of increased sweetness to minor-type brazzein: relative to minor-type brazzein; for Minimum stimulation level in which one senses sweetness for first time: 20 trained subjects; for Sweetness ratios of sucrose (1 g/100 ml) to primary brazzein variants (minor-type brazzein: 2000) / Sweetness ratios of sucrose (1 g/100 ml) to brazzein multi-variants: relative to 1 g/100 ml sucrose threshold
Method: Since the recombinant brazzein according to the present invention is not a sucrose-based compound having a cyclic ring, the sweetness of the recombinant brazzein was not measured using a saccharometer. Therefore, the activity of the recombinant brazzein was measured using the human sense of taste. Sugar content measurement was performed on 20 subjects who were trained to feel substantially the same minimum concentration of sucrose in which they could sense sweetness using a sucrose solution. That is, a concentration of each brazzein variant in which the subjects could sense sweetness for the first time was measured. Also, a sweetness ratio of the sucrose solution to the wild-type brazzein was 1 g/100 ml, which was a minimum stimulation level in which the subjects could sense sweetness. Also, a sweetness ratio of the minor-type brazzein protein to the wild-type brazzein was 500 μg/100 ml, which was a minimum stimulation level in which the subjects could sense sweetness. Therefore, the sweetness was calculated using the sweetness ratios (That is, 1/0.0005=2000 for the minor-type brazzein).
Also, the brazzein multi-variants were measured for activity (sweetness) in the same manner as in Example 3-1.

Molecule | Minimum stimulation level in which the subjects could sense sweetness (sucrose solution) | Multiples of increased sweetness to minor-type brazzein (primary brazzein variants) | Minimum stimulation level in which one senses sweetness for first time (primary brazzein variants) | Sweetness ratios of sucrose (1 g/100 ml) to primary brazzein variants (minor-type brazzein: 2000) | Multiples of increased sweetness to minor-type brazzein (brazzein multi-variants) | Sweetness ratios of sucrose (1 g/100 ml) to brazzein multi-variants
OC[C@H]1O[C@@](CO)(O[C@H]2O[C@H](CO)[C@@H](O)[C@H](O)[C@H]2O)[C@@H](O)[C@@H]1O [sucrose, reference compound] | 1 g/100 ml | – | – | – | – | –
E35A: primary brazzein variant: Glu at position 35 of minor-type brazzein substituted with Ala (DKCKKVYENYPVSKCQLANQCNYDCKLRKHARSGACFYDEKRNLQCICDYCEY; Brazzein(E35A)) [Brazzein E35A] | – | 0.05 | 10,000 μg/100 ml | 100 | – | –
E35D_E40A: secondary brazzein variant of minor-type brazzein with substitutions E35D and E40A (DKCKKVYENYPVSKCQLANQCNYDCKLRKHAKSGDCFYDAKRNLQCICDYCEY; Brazzein(E35D_E40A)) [Brazzein E35D_E40A] | – | – | – | – | 5 | 10,000
E35D_E40D: secondary brazzein variant of minor-type brazzein with substitutions E35D and E40D (DKCKKVYENYPVSKCQLANQCNYDCKLRKHAKSGDCFYDDKRNLQCICDYCEY; Brazzein(E35D_E40D)) [Brazzein E35D_E40D] | – | – | – | – | 5 | 10,000
E35D_E40K: secondary brazzein variant of minor-type brazzein with substitutions E35D and E40K (DKCKKVYENYPVSKCQLANQCNYDCKLRKHAKSGDCFYDKKRNLQCICDYCEY; Brazzein(E35D_E40K)) [Brazzein E35D_E40K] | – | – | – | – | 4 | 8,000
E35D_E40R: secondary brazzein variant of minor-type brazzein with substitutions E35D and E40R (DKCKKVYENYPVSKCQLANQCNYDCKLRKHAKSGDCFYDRKRNLQCICDYCEY; Brazzein(E35D_E40R)) [Brazzein E35D_E40R] | – | – | – | – | 6 | 12,000
E35H: primary brazzein variant: Glu at position 35 of minor-type brazzein substituted with His (DKCKKVYENYPVSKCQLANQCNYDCKLRKHARSGHCFYDEKRNLQCICDYCEY; Brazzein(E35H)) [Brazzein E35H] | – | 0.08 | 6,000 μg/100 ml | 167 | – | –
E35K: primary brazzein variant: Glu at position 35 of minor-type brazzein substituted with Lys (DKCKKVYENYPVSKCQLANQCNYDCKLRKHARSGKCFYDEKRNLQCICDYCEY; Brazzein(E35K)) [Brazzein E35K] | – | 0.08 | 6,000 μg/100 ml | 167 | – | –
E35R: primary brazzein variant: Glu at position 35 of minor-type brazzein substituted with Arg (DKCKKVYENYPVSKCQLANQCNYDCKLRKHARSGRCFYDEKRNLQCICDYCEY; Brazzein(E35R)) [Brazzein E35R] | – | 0.08 | 6,000 μg/100 ml | 167 | – | –
E40H: primary brazzein variant: Glu at position 40 of minor-type brazzein substituted with His (DKCKKVYENYPVSKCQLANQCNYDCKLRKHARSGECFYDHKRNLQCICDYCEY; Brazzein(E40H)) [Brazzein E40H] | – | 2 | 250 μg/100 ml | 4,000 | – | –
H30A: primary brazzein variant: His at position 30 of minor-type brazzein substituted with Ala (DKCKKVYENYPVSKCQLANQCNYDCKLRKAARSGECFYDEKRNLQCICDYCEY; Brazzein(H30A)) [Brazzein H30A] | – | 0.08 | 6,000 μg/100 ml | 167 | – | –
H30D: primary brazzein variant: His at position 30 of minor-type brazzein substituted with Asp (DKCKKVYENYPVSKCQLANQCNYDCKLRKDARSGECFYDEKRNLQCICDYCEY; Brazzein(H30D)) [Brazzein H30D] | – | 0.16 | 3,000 μg/100 ml | 334 | – | –
H30E: primary brazzein variant: His at position 30 of minor-type brazzein substituted with Glu (DKCKKVYENYPVSKCQLANQCNYDCKLRKEARSGECFYDEKRNLQCICDYCEY; Brazzein(H30E)) [Brazzein H30E] | – | 0.16 | 3,000 μg/100 ml | 334 | – | –
H30K: primary brazzein variant: His at position 30 of minor-type brazzein substituted with Lys (DKCKKVYENYPVSKCQLANQCNYDCKLRKKARSGECFYDEKRNLQCICDYCEY; Brazzein(H30K)) [Brazzein H30K] | – | 2 | 250 μg/100 ml | 4,000 | – | –
H30R_E40A: secondary brazzein variant of minor-type brazzein with substitutions H30R and E40A (DKCKKVYENYPVSKCQLANQCNYDCKLRKRAKSGECFYDAKRNLQCICDYCEY; Brazzein(H30R_E40A)) [Brazzein H30R_E40A] | – | – | – | – | 4 | 8,000
H30R_E40D: secondary brazzein variant of minor-type brazzein with substitutions H30R and E40D (DKCKKVYENYPVSKCQLANQCNYDCKLRKRAKSGECFYDDKRNLQCICDYCEY; Brazzein(H30R_E40D)) [Brazzein H30R_E40D] | – | – | – | – | 4 | 8,000
H30R_E40K: secondary brazzein variant of minor-type brazzein with substitutions H30R and E40K (DKCKKVYENYPVSKCQLANQCNYDCKLRKRAKSGECFYDKKRNLQCICDYCEY; Brazzein(H30R_E40K)) [Brazzein H30R_E40K] | – | – | – | – | 5 | 10,000
H30R_E40R: secondary brazzein variant of minor-type brazzein with substitutions H30R and E40R (DKCKKVYENYPVSKCQLANQCNYDCKLRKRAKSGECFYDRKRNLQCICDYCEY; Brazzein(H30R_E40R)) [Brazzein H30R_E40R] | – | – | – | – | 5 | 10,000
K5A: primary brazzein variant: Lys at position 5 of minor-type brazzein substituted with Ala (DKCKAVYENYPVSKCQLANQCNYDCKLRKHARSGECFYDEKRNLQCICDYCEY; Brazzein(K5A)) [Brazzein K5A] | – | 0.08 | 6,000 μg/100 ml | 167 | – | –
K5D: primary brazzein variant: Lys at position 5 of minor-type brazzein substituted with Asp (DKCKDVYENYPVSKCQLANQCNYDCKLRKHARSGECFYDEKRNLQCICDYCEY; Brazzein(K5D)) [Brazzein K5D] | – | 0.08 | 6,000 μg/100 ml | 167 | – | –
K5E: primary brazzein variant: Lys at position 5 of minor-type brazzein substituted with Glu (DKCKEVYENYPVSKCQLANQCNYDCKLRKHARSGECFYDEKRNLQCICDYCEY; Brazzein(K5E)) [Brazzein K5E] | – | 0.08 | 6,000 μg/100 ml | 167 | – | –
K5H: primary brazzein variant: Lys at position 5 of minor-type brazzein substituted with His (DKCKHVYENYPVSKCQLANQCNYDCKLRKHARSGECFYDEKRNLQCICDYCEY; Brazzein(K5H)) [Brazzein K5H] | – | 0.05 | 10,000 μg/100 ml | 100 | – | –
